The values below come from ChEMBL document CHEMBL1201862, “PubChem BioAssay data set” (2004).

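Step 1: Grow cells in 96-well plates. Step 2: Expose to compound for 48 hours at 5 concentrations. Step 3: Interpolate endpoints linearly; if unreached, use highest concentration. GI50 = concentration required for 50% inhibition of growth.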 The source made the active and inactive calls. No stated cut-off is given here; in the data, active = GI50 up to about 1.1 µM and inactive = higher.

Holding throughout (test): growth of human tumour cells (NCI), 48 h
Assay [1] has as its system OVCAR-4.
The subject of assay [2] is NCI-H460.
The test system of assay [3] is SK-OV-3.
The test system of assay [4] is HT-29.
The subject of assay [5] is NCI/ADR-RES.
Assay [6] relates to IGROV-1.
Assay [7] relates to NCI-H226.
For assay [8], the system named is U-251.
Assay [9] has as its system SNB-19.
The subject of assay [10] is SK-MEL-5.
Assay [11] deals with HOP-92.
In assay [12] the test system is HCT-15.
In assay [13] the test system is SF-295.
In assay [14] the test system is SK-MEL-2.
Assay [15] has as its system SF-539.
Assay [16] deals with Malme-3M.
For assay [17], the system named is UACC-257.
In assay [18] the test system is EKVX.
Assay [19] deals with K562.
For assay [20], the system named is RPMI-8226.

As for `N=c1sc2ccccc2n1CC[S-].c1ccc2c(c1)sc1[n+]2CCS1`, the GI50 was 16.4 µM (inactive) in assay [1]; 14.4 µM (inactive) in assay [2]; 23.1 µM (inactive) in assay [3]; 19 µM (inactive) in assay [4]; 20.4 µM (inactive) in assay [5]; 12.5 µM (inactive) in [6]. Further, the GI50 in assay [7] was 16.7 µM (inactive); in [8], 15.5 µM (inactive); in [9], 19.3 µM (inactive); in assay [10] it was 14.8 µM (inactive); in assay [11], 17 µM (inactive); in assay [12] it was 16.7 µM. For the same compound, the GI50 in [13] is 17.4 µM (inactive); in assay [14], 18.2 µM (inactive); in [15] it was 6.58 µM (inactive); in [16], 17.7 µM (inactive); in assay [17], 17.8 µM (inactive); in assay [18], 22 µM (inactive). Further, in assay [19], the GI50 was 16.7 µM (inactive).

Turning to `COc1ccc(-c2oc3c(OC)c(OC)cc(O)c3c(=O)c2OC)cc1`, the GI50 in [1] was > 100 µM (inactive); in [2], > 100 µM (inactive); in assay [3], 36.5 µM (inactive); in [4], > 100 µM (inactive); in [5], > 100 µM (inactive); in assay [6] it was > 100 µM (inactive). The GI50 in [7] was > 100 µM (inactive); in assay [8], 70.8 µM (inactive); in assay [9], > 100 µM (inactive); in assay [10] it was 91.6 µM (inactive); in [11], 42.8 µM (inactive); in assay [12], over 100 µM. For the same compound, the GI50 in [13] is > 100 µM (inactive); in [14], > 100 µM (inactive); in assay [15], 28.8 µM (inactive); in assay [16] it was > 100 µM (inactive); in [17], > 100 µM (inactive); in assay [18], > 100 µM (inactive). In addition, in assay [19], the GI50 was > 100 µM (inactive).

With `COc1cc2c(cc1OC)CCc1cc(OC)c(OC)cc1CC2`, the GI50 in [1], in [2], in assay [3], in assay [4], in assay [5] and in assay [6] was > 100 µM (inactive) in each case. Also, the GI50 in assay [7] was > 100 µM (inactive); in [8], > 100 µM (inactive); in [9] it was > 100 µM (inactive); in assay [10] it was > 100 µM (inactive); in assay [11] it was > 100 µM (inactive); in assay [12] it was over 100 µM. Also, the GI50 in assay [13], in assay [14], in [15], in assay [16], in assay [17] and in assay [18] was > 100 µM (inactive) throughout. In addition, the GI50 in assay [19] was > 100 µM (inactive).

With `CCO/C=N\c1c(C#N)c(-c2ccc(Cl)cc2)cn1-c1ccc(C)cc1`, the GI50 in assay [1], in [2], in assay [3], in assay [4], in assay [5] and in [6] was > 100 µM (inactive) each time. Besides, the GI50 in assay [7] is > 100 µM (inactive); in assay [8], > 100 µM (inactive); in assay [9], > 100 µM (inactive); in [10], > 100 µM (inactive); in [11], > 100 µM (inactive); in assay [12], over 100 µM. The GI50 in [13], in [14], in assay [15], in assay [16], in assay [17] and in [18] was > 100 µM (inactive) throughout. Moreover, the GI50 in [19] was > 100 µM (inactive).

With `COc1ccc2[nH]c3c(c2c1)CCc1ccccc1-3`, the GI50 is 37.6 µM (inactive) in assay [1]; 30.8 µM (inactive) in [2]; 40.9 µM (inactive) in assay [3]; > 100 µM (inactive) in assay [4]; 40.4 µM (inactive) in [5]; 19.8 µM (inactive) in assay [6]. The GI50 was > 100 µM (inactive) in [7]; 30.3 µM (inactive) in [8]; 81.3 µM (inactive) in [9]; > 100 µM (inactive) in [10]; 51.2 µM (inactive) in [11]; 70.5 µM in assay [12]. For the same compound, the GI50 in assay [13] was 32.8 µM (inactive); in [14], > 100 µM (inactive); in assay [15], 16.7 µM (inactive); in assay [16], 39.2 µM (inactive); in assay [17] it was > 100 µM (inactive); in assay [18], 17.6 µM (inactive). Further, the GI50 in assay [19] was > 100 µM (inactive).

`C=CCn1c(-c2ccc(/N=N/Nc3ccc(-c4n[nH]c(=S)n4CC=C)cc3)cc2)n[nH]c1=S`: the GI50 in assay [1] was 2.53 µM (inactive); in assay [3] it was 11.7 µM (inactive); in assay [5], 21.4 µM (inactive); in assay [6], 3.34 µM (inactive); in [7], 2.32 µM (inactive); in assay [8], 4.36 µM (inactive). Further, the GI50 is 27 µM (inactive) in assay [9]; 1.53 µM (inactive) in assay [10]; 7.31 µM (inactive) in assay [11]; 4.59 µM in assay [12]; 3.39 µM (inactive) in assay [13]; 2.67 µM (inactive) in [14]. The GI50 was 3.57 µM (inactive) in [16]; 3.33 µM (inactive) in [17]; 5.55 µM (inactive) in [18]; 2.12 µM (inactive) in assay [19]; 1.76 µM (inactive) in [20].

Regarding `CN(C)C1C(O)=C(C(=O)NCN2CCCC2)C(=O)C2(O)C(O)=C3C(=O)c4c(O)cccc4C(C)(O)C3CC12` (centres undefined), the GI50 in assay [1], in assay [3], in assay [4], in assay [5], in [6] and in assay [7] was > 100 µM (inactive) each time. Further, the GI50 is 88.9 µM (inactive) in [8]; > 100 µM (inactive) in [9]; > 100 µM (inactive) in assay [10]; > 100 µM (inactive) in [11]; over 100 µM in [12]; > 100 µM (inactive) in assay [13]. In addition, the GI50 in [14] is > 100 µM (inactive); in assay [16], 25.6 µM (inactive); in assay [17] it was 69.2 µM (inactive); in assay [18] it was > 100 µM (inactive); in [19], 57 µM (inactive); in assay [20] it was > 100 µM (inactive).

For the compound `Cc1cc(-c2nc3cc(O)ccc3s2)ccc1N`, the GI50 is 28 µM (inactive) in [1]; 29 µM (inactive) in [2]; 19.3 µM (inactive) in [3]; 21.5 µM (inactive) in assay [4]; 38.1 µM (inactive) in [5]; 33.4 µM (inactive) in [6]. Also, the GI50 in [7] is 31.4 µM (inactive); in assay [8], 30.5 µM (inactive); in [9], 33.7 µM (inactive); in [10] it was 22.5 µM (inactive); in assay [11] it was 76.4 µM (inactive); in assay [12], 41.2 µM. Also, the GI50 in assay [13] was 26 µM (inactive); in [14], 28.4 µM (inactive); in assay [15], 25.5 µM (inactive); in [16], 45.7 µM (inactive); in [17], 35.1 µM (inactive); in assay [18], 10.2 µM (inactive). The GI50 in assay [19] is 38.5 µM (inactive).
